From PMC4980838 (European journal of medicinal chemistry, 2010)

Experiments:
[1] = system: human HT-29 colon tumor cell line; test: Tumor cell growth inhibition, HT-29; type: cell-based; settings: HT-29, 72 h, read-out: Growth inhibition IC50
[2] = biological target: recombinant human PDE5 enzyme (Homo sapiens, UniProt O76074); test: Phosphodiesterase assay; type: biochemical

Q: Which IC50 [1] does the source give for `COC(=O)[C@@H]1Cc2c([nH]c3ccccc23)[C@@H](c2ccccc2Br)N1C(=O)CCl` [Compound 6d, Methyl (1R,3S)-1-(2-bromophenyl)-2-(2-chloroacetyl)-2,3,4,9-tetrahydro-1H-β-carboline-3-carboxylate] here?
A: 1600 nM

Q: What about the “PDE5 inhibitory activity (in words)” value [2] of the same compound?
A: did not show PDE5 inhibitory activity
